PubChem BioAssay AID248 (DTP/NCI, 2004)
Inconclusive results and toxic doses are left out. Cut-off read from the data, not from the text of the source: active = T/C of 150% or more; inactive = T/C below 125%.

Test system: L1210 leukemia ip in BDF1 mice, survival T/C
Assay: NCI In Vivo Anticancer Drug Screen. Data for tumor model L1210 Leukemia (intraperitoneal) in B6D2F1 (BDF1) mice
Conditions: endpoint: mean survival time, higher = longer survival
Summary of the method: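 Transplanted-tumor mice were given test agent; controls received vehicle only. Survival readings from the two groups were divided (treated over control).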

[1] = dose: 100.0 mg/kg/injection, schedule: Q04DX003 (ip), vehicle: Klucel (hydroxypropylcellulose) (HPC)
[2] = dose: 200.0 mg/kg/injection, schedule: Q04DX003 (ip), vehicle: Klucel (hydroxypropylcellulose) (HPC)
[3] = dose: 100.0 mg/kg/injection, schedule: Q04DX003 (ip), vehicle: saline
[4] = dose: 200.0 mg/kg/injection, schedule: Q04DX003 (ip), vehicle: saline
[5] = dose: 400.0 mg/kg/injection, schedule: Q04DX003 (ip), vehicle: saline
[6] = dose: 50.0 mg/kg/injection, schedule: Q01DX009 (ip), vehicle: saline with Tween-80
[7] = dose: 100.0 mg/kg/injection, schedule: Q04DX003 (ip), vehicle: saline with Tween-80
[8] = dose: 100.0 mg/kg/injection, schedule: Q01DX001 (ip), vehicle: other
[9] = dose: 200.0 mg/kg/injection, schedule: Q01DX001 (ip), vehicle: other
[10] = dose: 400.0 mg/kg/injection, schedule: Q01DX001 (ip), vehicle: other
[11] = dose: 50.0 mg/kg/injection, schedule: Q01DX001 (ip), vehicle: saline
[12] = dose: 100.0 mg/kg/injection, schedule: Q01DX001 (ip), vehicle: saline
[13] = dose: 200.0 mg/kg/injection, schedule: Q01DX001 (ip), vehicle: saline
[14] = dose: 50.0 mg/kg/injection, schedule: Q01DX001 (ip), vehicle: carboxymethylcellulose (CMC)
[15] = dose: 100.0 mg/kg/injection, schedule: Q01DX001 (ip), vehicle: carboxymethylcellulose (CMC)
[16] = dose: 200.0 mg/kg/injection, schedule: Q01DX001 (ip), vehicle: carboxymethylcellulose (CMC)
[17] = dose: 400.0 mg/kg/injection, schedule: Q01DX001 (ip), vehicle: carboxymethylcellulose (CMC)
[18] = dose: 400.0 mg/kg/injection, schedule: Q04DX003 (ip), vehicle: Klucel (hydroxypropylcellulose) (HPC)
[19] = dose: 100.0 mg/kg/injection, schedule: Q04DX002 (ip), vehicle: saline with Tween-80
[20] = dose: 200.0 mg/kg/injection, schedule: Q04DX002 (ip), vehicle: saline with Tween-80
[21] = dose: 400.0 mg/kg/injection, schedule: Q04DX002 (ip), vehicle: saline with Tween-80
[22] = dose: 400.0 mg/kg/injection, schedule: Q01DX001 (ip), vehicle: saline

Measured: T/C

CCCCCCCCCCCC[N+](CCO)(CCO)Cc1ccccc1
inactive: dose: 3.12 mg/kg/injection, schedule: Q01DX009 (ip), vehicle: saline 96 % of control | dose: 6.25 mg/kg/injection, schedule: Q01DX009 (ip), vehicle: saline 98 % of control | dose: 12.5 mg/kg/injection, schedule: Q04DX003 (ip), vehicle: saline 88 % of control

COc1cc([C@@H]2c3cc4c(cc3[C@H](OC(C)=O)[C@H]3COC(=O)[C@@H]23)OCO4)cc(OC)c1OC
inactive: dose: 33.0 mg/kg/injection, schedule: Q01DX009 (ip), vehicle: saline with Tween-80 97 % of control | [1] 98 % of control | [2] 90 % of control

c1ccc(SCN2CCN(CSc3ccccc3)CC2)cc1
inactive: [3] 101 % of control | [4] 101 % of control | [5] 98 % of control

CCCCCCCC1CCC(N)CC1 (configuration not stated)
inactive: dose: 12.5 mg/kg/injection, schedule: Q04DX003 (ip), vehicle: Klucel (hydroxypropylcellulose) (HPC) 105 % of control | dose: 25.0 mg/kg/injection, schedule: Q04DX003 (ip), vehicle: Klucel (hydroxypropylcellulose) (HPC) 91 % of control | dose: 50.0 mg/kg/injection, schedule: Q04DX003 (ip), vehicle: Klucel (hydroxypropylcellulose) (HPC) 100 % of control

CNC(C)(C)C(SS)c1ccc(Cl)cc1 (configuration not stated)
inactive: dose: 25.0 mg/kg/injection, schedule: Q01DX009 (ip), vehicle: saline with Tween-80 92 % of control | dose: 25.0 mg/kg/injection, schedule: Q04DX003 (ip), vehicle: saline with Tween-80 102 % of control | [6] 98 % of control | dose: 50.0 mg/kg/injection, schedule: Q04DX003 (ip), vehicle: saline with Tween-80 96 % of control | dose: 75.0 mg/kg/injection, schedule: Q01DX009 (ip), vehicle: saline with Tween-80 94 % of control | [7] 98 % of control

CCOc1ccn(CC(=O)N2CCC3(CC2)SSC2(CCN(C(=O)Cn4ccc(OCC)nc4=O)CC2)S3)c(=O)n1
inactive: [3] 90 % of control | [4] 92 % of control | [5] 95 % of control

O=C(CCCC(=O)N/N=C/c1ccc(O)c(O)c1)N/N=C\c1ccc(O)c(O)c1
inactive: dose: 50.0 mg/kg/injection, schedule: Q01DX001 (ip), vehicle: other 104 % of control | [8] 93 % of control | [9] 98 % of control | [10] 91 % of control

CC(=O)NC1C(OCc2ccccc2)OC(COC(c2ccccc2)(c2ccccc2)c2ccccc2)C(N=[N+]=[N-])C1OCc1ccccc1 (configuration not stated)
inactive: dose: 100.0 mg/kg/injection, schedule: Q01DX001 (ip), vehicle: saline with Tween-80 86 % of control | dose: 200.0 mg/kg/injection, schedule: Q01DX001 (ip), vehicle: saline with Tween-80 86 % of control | dose: 400.0 mg/kg/injection, schedule: Q01DX001 (ip), vehicle: saline with Tween-80 102 % of control

COc1cc2cc(C)[nH]c2cc1OC
inactive: [11] 101 % of control | [12] 95 % of control | [13] 98 % of control

O=C1C2(c3ccccc3)CC(Cc3ccccc3)C1(c1ccccc1)C(c1ccccc1)=C2c1ccccc1 (configuration not stated)
inactive: [14] 100 % of control | [15] 97 % of control | [16] 111 % of control | [17] 95 % of control

c1ccc(-c2c[nH]c(-c3ccccc3)c2-c2ccccc2)cc1
inactive: dose: 75.0 mg/kg/injection, schedule: Q01DX001 (ip), vehicle: carboxymethylcellulose (CMC) 93 % of control | dose: 150.0 mg/kg/injection, schedule: Q01DX001 (ip), vehicle: carboxymethylcellulose (CMC) 93 % of control | dose: 300.0 mg/kg/injection, schedule: Q01DX001 (ip), vehicle: carboxymethylcellulose (CMC) 93 % of control

Cc1cc(=O)[nH]c2ccc(-c3ccc4[nH]c(=O)cc(C)c4c3)cc12
inactive: dose: 100.0 mg/kg/injection, schedule: Q01DX009 (ip), vehicle: Klucel (hydroxypropylcellulose) (HPC) 101 % of control | [1] 102 % of control | dose: 200.0 mg/kg/injection, schedule: Q01DX009 (ip), vehicle: Klucel (hydroxypropylcellulose) (HPC) 95 % of control | [2] 100 % of control | dose: 400.0 mg/kg/injection, schedule: Q01DX009 (ip), vehicle: Klucel (hydroxypropylcellulose) (HPC) 95 % of control | [18] 100 % of control

O=C(Nc1ccc(Cl)cc1Cl)c1cc(Cl)cc(Cl)c1Br
inactive: [7] 101 % of control | dose: 200.0 mg/kg/injection, schedule: Q04DX003 (ip), vehicle: saline with Tween-80 92 % of control | dose: 400.0 mg/kg/injection, schedule: Q04DX003 (ip), vehicle: saline with Tween-80 92 % of control

Cc1ccc(S(=O)(=O)NNc2c3ccccc3nc3ccc(Cl)cc23)cc1
inactive: [19] 101 % of control | [20] 97 % of control | [21] 97 % of control

NCc1cc[n+]([O-])cc1
inactive: dose: 25.0 mg/kg/injection, schedule: Q04DX002 (ip), vehicle: saline 102 % of control | dose: 50.0 mg/kg/injection, schedule: Q04DX002 (ip), vehicle: saline 102 % of control | dose: 100.0 mg/kg/injection, schedule: Q04DX002 (ip), vehicle: saline 102 % of control | dose: 400.0 mg/kg/injection, schedule: Q04DX002 (ip), vehicle: saline 88 % of control

O=C(OC(C(=O)O)C(OC(=O)c1ccccc1)C(=O)O)c1ccccc1 (configuration not stated) (tested in a mixture with another compound)
inactive: dose: 15.0 mg/kg/injection, schedule: Q01DX001 (ip), vehicle: carboxymethylcellulose (CMC) 102 % of control | [8] 109 % of control | [9] 102 % of control | [10] 109 % of control

C/C(=N\Nc1nc2ccccc2s1)c1ccc2c(c1)Sc1ccccc1O2
inactive: dose: 75.0 mg/kg/injection, schedule: Q04DX003 (ip), vehicle: saline 87 % of control | dose: 150.0 mg/kg/injection, schedule: Q04DX003 (ip), vehicle: saline 90 % of control

Nc1cccc(CC(N)C(=O)O)c1 (configuration not stated)
inactive: [3] 100 % of control | [4] 93 % of control | [5] 100 % of control

Clc1cccc(C2ON2C2CCCCC2)c1 (configuration not stated)
inactive: [15] 92 % of control | [16] 100 % of control | [17] 94 % of control

Brc1cccc(CCOCc2ccccc2)c1
inactive: [19] 103 % of control | [20] 100 % of control | [21] 97 % of control

O=c1nc2n(CC(O)C(O)C(O)CO)c3ccccc3cc-2c(=O)[nH]1 (configuration not stated)
inactive: [12] 90 % of control | [13] 90 % of control | [22] 93 % of control

COC(=O)C1=NN(c2ccccc2)CC1
inactive: [12] 98 % of control | dose: 100.0 mg/kg/injection, schedule: Q04DX003 (ip), vehicle: other 88 % of control | [13] 106 % of control | dose: 200.0 mg/kg/injection, schedule: Q04DX003 (ip), vehicle: other 94 % of control | [22] 90 % of control | dose: 400.0 mg/kg/injection, schedule: Q04DX003 (ip), vehicle: other 94 % of control

O=P1(N(CCCl)CCCl)N(Cc2ccccc2)c2ccccc2N1Cc1ccccc1
inactive: dose: 100.0 mg/kg/injection, schedule: Q01DX001 (ip), vehicle: Klucel (hydroxypropylcellulose) (HPC) 102 % of control | [1] 102 % of control | dose: 200.0 mg/kg/injection, schedule: Q01DX001 (ip), vehicle: Klucel (hydroxypropylcellulose) (HPC) 94 % of control | [2] 98 % of control | dose: 400.0 mg/kg/injection, schedule: Q01DX001 (ip), vehicle: Klucel (hydroxypropylcellulose) (HPC) 100 % of control | [18] 101 % of control

O=C(O)C1(Nc2ccc(-c3ccc(Br)cc3)cc2)CCCC1
inactive: [14] 90 % of control | [15] 90 % of control | [16] 90 % of control | [17] 90 % of control

CCc1occ(C(=O)N2Cc3cc4ccccc4nc3C2)c1C1SCCS1
inactive: [12] 89 % of control | [13] 92 % of control

CCOC(=O)C(C(C)=O)C1c2ccccc2Nc2ccccc21 (configuration not stated)
inactive: [6] 98 % of control | dose: 100.0 mg/kg/injection, schedule: Q01DX009 (ip), vehicle: saline with Tween-80 109 % of control | dose: 200.0 mg/kg/injection, schedule: Q01DX009 (ip), vehicle: saline with Tween-80 106 % of control

COc1ccccc1CN1CCCN(Cc2ccccc2OC)C1c1cc(Br)ccc1O
inactive: [11] 95 % of control | [12] 103 % of control | [13] 103 % of control | [22] 103 % of control
